Source: patent publication US20180022780A1, “STABILIZATION ADRENOMEDULLIN DERIVATIVES AND USE THEREOF” (priority 2014, published 2018)
pEC50: −log10 of the molar value. Bridge positions count the residues as written; N and C are the ends. Square brackets hold non-standard residues; d marks the D form. Peptide text beside a SMILES is read from it. * marks the point of attachment. Palmitoyl = CCCCCCCCCCCCCCCC(=O)*; NMeI = CC[C@H](C)[C@H](NC)C(=O)O; Orn = NCCC[C@H](N)C(=O)O

Experiments:
[1] = target: T1, CLR fused to EYFP and RAMP2 fused to ECFP (Homo sapiens, UniProt O60895+Q16602); assay: cAMP assay (CRE luciferase reporter, HEK-293 cells transiently co-transfected with CLR and RAMP2); assay type: cell-based; conditions: Table 2, cAMP assay; HEK-293, CLR/RAMP2, CRE luciferase, 3 h stimulation, normalized to [G^14]ADM(14-52)
T1 construct: EYFP; ECFP; expressed in transfected cells; host or cells: HEK-293 cells, transient co-transfection
T1 sequence (Q16602 23-461): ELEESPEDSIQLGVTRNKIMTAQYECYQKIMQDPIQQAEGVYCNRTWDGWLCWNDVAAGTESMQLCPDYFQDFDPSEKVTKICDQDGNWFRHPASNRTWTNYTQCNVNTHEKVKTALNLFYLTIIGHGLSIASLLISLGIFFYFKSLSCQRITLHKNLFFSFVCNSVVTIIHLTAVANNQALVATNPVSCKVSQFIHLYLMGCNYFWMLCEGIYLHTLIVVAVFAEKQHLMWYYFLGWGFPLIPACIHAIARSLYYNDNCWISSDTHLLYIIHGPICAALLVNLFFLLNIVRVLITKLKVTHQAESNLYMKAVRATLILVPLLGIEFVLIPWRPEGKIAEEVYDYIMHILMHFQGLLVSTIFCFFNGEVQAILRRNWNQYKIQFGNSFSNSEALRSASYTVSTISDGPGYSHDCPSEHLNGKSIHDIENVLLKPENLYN
T1 sequence (O60895 43-175): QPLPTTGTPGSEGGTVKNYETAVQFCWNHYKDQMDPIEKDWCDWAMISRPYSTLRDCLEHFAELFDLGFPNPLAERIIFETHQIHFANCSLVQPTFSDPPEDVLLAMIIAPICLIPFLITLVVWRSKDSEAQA
Method in brief: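 HEK-293 cells transiently co-transfected with CLR-EYFP, RAMP2-ECFP and a CRE-luc2P luciferase reporter were stimulated with ligands (eight concentrations, triplicate) for 3 h at 37 °C. Luminescence was corrected to 5 µM forskolin, normalized to [G^14]ADM(14-52) standard, and fitted by non-linear regression to dose-response curves.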

[2] = target: T2, human adrenomedullin-receptor (Homo sapiens, UniProt O60895+Q16602); assay: Tests on a recombinant adrenomedullin-receptor reporter cell (CHO, aequorin luminescence); assay type: cell-based; conditions: Table 1, CHO cell line carrying the human adrenomedullin-receptor
T2 construct: expressed in transfected cells; host or cells: CHO (Chinese hamster ovary) recombinant reporter cell line with aequorin
T2 sequence (Q16602 23-461): as the sequence (Q16602 23-461) above
T2 sequence (O60895 43-175): as the sequence (O60895 43-175) above
Protocol: Activation of the receptor by ligands was measured by aequorin luminescence. Construction of the cell line and measurement procedure has been described in detail [Wunder F., Rebmann A., Geerts A, and Kalthof B., Mol Pharmacol, 73, 1235-1243 (2008)]. In brief: Cells were seeded on opaque 384-well microtiter plates at a density of 4000 cells/well and were grown for 24 h. After removal of culture medium, cells were loaded for 3 h with 0.6 μg/ml coelenterazine in Ca^2+-free Tyrode solution (130 mM sodium chloride, 5 mM potassium chloride, 20 mM HEPES (4-(2-hydroxyethyl)-1-piperazineethanesulfonic acid), 1 mM magnesium chloride, and 4.8 mM sodium hydrogen carbonate, pH 7.4) supplemented with 0.2 mM 3-Isobutyl-1-methylxanthine (IBMX) in a cell culture incubator. Examples were added for 6 min in calcium^2+-free Tyrode solution containing 0.1% bovine serum albumin. Immediately before adding calcium^2+ to a final concentration of 3 mM measurement of the aequorin luminescence was started by use of a suitable luminometer. Luminescence was measured for 60 s. In a typical experiment compounds were tested in a concentration range of 1×10^−13 to 3×10^−6 M.

| Structure (SMILES) | pEC50 [1] | pEC50 [2] |
| --- | --- | --- |
| CCCCCCCCCCCCCCCC(=O)NCCCC[C@H](N)C(=O)NCC(=O)N[C@H]1CCC(=O)NCCCC[C@@H](C(=O)N[C@H](C(=O)N[C@H](C(=O)N[C@@H](CCC(N)=O)C(=O)N[C@@H](CCCCN)C(=O)N[C@@H](CC(C)C)C(=O)N[C@@H](C)C(=O)N[C@@H](Cc2c[nH]cn2)C(=O)N[C@@H](CCC(N)=O)C(=O)N[C@H](C(=O)N[C@@H](Cc2ccc(O)cc2)C(=O)N[C@@H](CCC(N)=O)C(=O)N[C@@H](Cc2ccccc2)C(=O)N[C@H](C(=O)N[C@@H](CC(=O)O)C(=O)N[C@@H](CCCCN)C(=O)N[C@@H](CC(=O)O)C(=O)N[C@@H](CCCCN)C(=O)N[C@@H](CC(=O)O)C(=O)N[C@@H](CC(N)=O)C(=O)N[C@H](C(=O)N[C@@H](C)C(=O)N2CCC[C@H]2C(=O)N[C@@H](CCCNC(=N)N)C(=O)N[C@@H](CO)C(=O)N[C@@H](CCCCN)C(=O)N(C)[C@H](C(=O)N[C@@H](CO)C(=O)N2CCC[C@H]2C(=O)N[C@@H](CCC(N)=O)C(=O)NCC(=O)N[C@@H](Cc2ccc(O)cc2)C(N)=O)[C@@H](C)CC)C(C)C)[C@@H](C)O)[C@@H](C)CC)C(C)C)[C@@H](C)O)NC(=O)[C@H]([C@@H](C)O)NC(=O)CNC(=O)[C@H](Cc2ccccc2)NC(=O)[C@H](CCCNC(=N)N)NC1=O [Example 14, ((2S,5S,11S,14S,23S)-23-(2-((S)-2-amino-6-palmitamidohexanamido)acetamido)-5-benzyl-2-(3-guanidinopropyl)-11-((R)-1-hydroxyethyl)-3,6,9,12,20,24-hexaoxo-1,4,7,10,13,19-hexaazacyclotetracosane-14-carbonyl)-L-threonyl-[N-Me-I^47]ADM(22-52)] (H-K(Palmitoyl)GERFGTKTVQKLAHQIYQFTDKDKDNVAPRSK[NMeI]SPQGY-NH2; lactam 3-8) | 6.82 | 7.49 |
| CC[C@H](C)[C@H](NC(=O)[C@H](CCC(N)=O)NC(=O)[C@H](Cc1c[nH]cn1)NC(=O)[C@H](C)NC(=O)[C@H](CC(C)C)NC(=O)[C@H](CCCCN)NC(=O)[C@H](CCC(N)=O)NC(=O)[C@@H](NC(=O)[C@@H](NC(=O)[C@@H]1CCCC[C@H](NC(=O)CNC(=O)CN)C(=O)N[C@@H](CCCNC(=N)N)C(=O)N[C@@H](Cc2ccccc2)C(=O)NCC(=O)N[C@@H]([C@@H](C)O)C(=O)N1)[C@@H](C)O)C(C)C)C(=O)N[C@@H](Cc1ccc(O)cc1)C(=O)N[C@@H](CCC(N)=O)C(=O)N[C@@H](Cc1ccccc1)C(=O)N[C@H](C(=O)N[C@@H](CC(=O)O)C(=O)N[C@@H](CCCCN)C(=O)N[C@@H](CC(=O)O)C(=O)N[C@@H](CCCCN)C(=O)N[C@@H](CC(=O)O)C(=O)N[C@@H](CC(N)=O)C(=O)N[C@H](C(=O)N[C@@H](C)C(=O)N1CCC[C@H]1C(=O)N[C@@H](CCCNC(=N)N)C(=O)N[C@@H](CO)C(=O)N[C@@H](CCCCN)C(=O)N[C@H](C(=O)N[C@@H](CO)C(=O)N1CCC[C@H]1C(=O)N[C@@H](CCC(N)=O)C(=O)NCC(=O)N[C@@H](Cc1ccc(O)cc1)C(N)=O)[C@@H](C)CC)C(C)C)[C@@H](C)O [Example 17, ((2S,5S,11S,14S,19S)-19-(2-(2-aminoacetamido)acetamido)-5-benzyl-2-(3-guanidinopropyl)-11-((R)-1-hydroxyethyl)-3,6,9,12,20-pentaoxo-1,4,7,10,13-pentaazacycloicosane-14-carbonyl)-L threonyl-ADM(22-52)] | < 6.00 | < 6.00 |
| CC[C@H](C)[C@H](NC(=O)[C@H](CCC(N)=O)NC(=O)[C@H](Cc1c[nH]cn1)NC(=O)[C@H](C)NC(=O)[C@H](CC(C)C)NC(=O)[C@H](CCCCN)NC(=O)[C@H](CCC(N)=O)NC(=O)[C@@H](NC(=O)[C@@H](NC(=O)[C@@H]1CCCNC(=O)CC[C@H](NC(=O)CNC(=O)CN)C(=O)N[C@@H](CCCNC(=N)N)C(=O)N[C@@H](Cc2ccccc2)C(=O)NCC(=O)N[C@@H]([C@@H](C)O)C(=O)N1)[C@@H](C)O)C(C)C)C(=O)N[C@@H](Cc1ccc(O)cc1)C(=O)N[C@@H](CCC(N)=O)C(=O)N[C@@H](Cc1ccccc1)C(=O)N[C@H](C(=O)N[C@@H](CC(=O)O)C(=O)N[C@@H](CCCCN)C(=O)N[C@@H](CC(=O)O)C(=O)N[C@@H](CCCCN)C(=O)N[C@@H](CC(=O)O)C(=O)N[C@@H](CC(N)=O)C(=O)N[C@H](C(=O)N[C@@H](C)C(=O)N1CCC[C@H]1C(=O)N[C@@H](CCCNC(=N)N)C(=O)N[C@@H](CO)C(=O)N[C@@H](CCCCN)C(=O)N[C@H](C(=O)N[C@@H](CO)C(=O)N1CCC[C@H]1C(=O)N[C@@H](CCC(N)=O)C(=O)NCC(=O)N[C@@H](Cc1ccc(O)cc1)C(N)=O)[C@@H](C)CC)C(C)C)[C@@H](C)O [Example 19, ((2S,5S,11S,14S,22S)-22-(2-(2-aminoacetamido)acetamido)-5-benzyl-2-(3-guanidinopropyl)-11-((R)-1-hydroxyethyl)-3,6,9,12,19,23-hexaoxo-1,4,7,10,13,18-hexaazacyclotricosane-14-carbonyl)-L-threonyl-ADM(22-52)] (H-GGERFGT[Orn]TVQKLAHQIYQFTDKDKDNVAPRSKISPQGY-NH2; lactam 3-8) | 7.68 | < 6.00 |
| CC[C@H](C)[C@H](NC(=O)[C@H](CCC(N)=O)NC(=O)[C@H](Cc1c[nH]cn1)NC(=O)[C@H](C)NC(=O)[C@H](CC(C)C)NC(=O)[C@H](CCCCN)NC(=O)[C@H](CCC(N)=O)NC(=O)[C@@H](NC(=O)[C@@H](NC(=O)[C@@H]1CC(=O)NCCCC[C@H](NC(=O)CNC(=O)CN)C(=O)N[C@@H](CCCNC(=N)N)C(=O)N[C@@H](Cc2ccccc2)C(=O)NCC(=O)N[C@@H]([C@@H](C)O)C(=O)N1)[C@@H](C)O)C(C)C)C(=O)N[C@@H](Cc1ccc(O)cc1)C(=O)N[C@@H](CCC(N)=O)C(=O)N[C@@H](Cc1ccccc1)C(=O)N[C@H](C(=O)N[C@@H](CC(=O)O)C(=O)N[C@@H](CCCCN)C(=O)N[C@@H](CC(=O)O)C(=O)N[C@@H](CCCCN)C(=O)N[C@@H](CC(=O)O)C(=O)N[C@@H](CC(N)=O)C(=O)N[C@H](C(=O)N[C@@H](C)C(=O)N1CCC[C@H]1C(=O)N[C@@H](CCCNC(=N)N)C(=O)N[C@@H](CO)C(=O)N[C@@H](CCCCN)C(=O)N[C@H](C(=O)N[C@@H](CO)C(=O)N1CCC[C@H]1C(=O)N[C@@H](CCC(N)=O)C(=O)NCC(=O)N[C@@H](Cc1ccc(O)cc1)C(N)=O)[C@@H](C)CC)C(C)C)[C@@H](C)O [Example 21, ((2S,5S,11S,14S,22S)-22-(2-(2-aminoacetamido)acetamido)-5-benzyl-2-(3-guanidinopropyl)-11-((R)-1-hydroxyethyl)-3,6,9,12,16,23-hexaoxo-1,4,7,10,13,17-hexaazacyclotricosane-14-carbonyl)-L-threonyl-ADM(22-52)] (H-GGKRFGTDTVQKLAHQIYQFTDKDKDNVAPRSKISPQGY-NH2; lactam 3-8) | < 6.00 | < 6.00 |
